Assay results from patent US11833187B2, “Materials and methods for extracellular vessicle-associated diseases” (THE BRIGHAM AND WOMEN'S HOSPITAL, INC., priority 2017, dated 2023).
“Also recorded” adds a separate entry of the source. Peptide text beside a SMILES is read from it. * marks the point of attachment. Cbz = O=C(OCc1ccccc1)*

Experiments:
[1] = tested on: FLAG-sortilin ICD+TMD; experiment: Reducing western blotting of FLAG-sortilin ICD+TMD protein expression in stably overexpressing HEK293 cells; assay type: cell-based, human; details: for protein expression of FLAG-sortilin ICD+TMD: MG-132 20 μmol/L or chloroquine 10 μmol/L for 7 hours, n=3
Protocol: (§1) Cells, EVs and the supernatant of culture medium were lysed with IP lysis buffer (Thermo Fisher Scientific Inc., Cat #87787) containing protease inhibitor (Roche Diagnostics, Cat #04693159001). Protein concentration was measured using the bicinchoninic acid (BCA) method (Thermo Fisher Scientific Inc., Cat #23225). Laemmli buffer (Boston Bioproduct; non-reducing, Cat #BP-110NR; reducing, Cat #BP-111R) was added to the lysate, and boiled at 95° C. for 5 minutes. Total protein was separated by 4-12% SDS-PAGE and transferred to polyvinylidene difluoride (PVDF) membrane using iBlot Western blotting system (Life Technologies) or conventional wet method. Primary antibodies against human sortilin ICD (rabbit 1:1000; Abcam plc., Cat #ab16640, Lot #GR185198-1), human (3-actin (mouse 1:2000; Novus Biologicals, LLC, Cat #NB600-501, Lot #014M4759), FLAG (rabbit 1:1000; Sigma, Cat #F4725, Lot #093M4798, mouse (M2) 1:1000; Sigma, Cat #F1804, Lot #SLBJ4607V), 6×His (mouse 1:1000; Abcam plc., Cat #ab18184, Lot #GR247674-1).
(§2) HEK293 cells were purchased from American Type Culture Collection (ATCC) and maintained in Eagle's minimum essential medium (EMEM, ATCC, Cat #30-2003) supplemented with 10% fetal bovine serum (FBS), penicillin (100 U/mL), and streptomycin (100 μg/mL) at 37° C. in a humidified atmosphere of 5% CO2. For transfection in HEK293 cells, Lipofectamine 2000 reagent (Thermo Fisher Scientific Inc., Cat #11668019) was used, according to the manufacturer's protocol. HEK293 cells stably expressing FLAG-sortilin Full, ECD+TMD, ICD+TMD and sortilin-3×FLAG were obtained by transfection with pcDNA3.1(+) FLAG-sortilin Full, pcDNA3.1(+) FLAG-sortilin-ECD+TMD, pcDNA3.1(+) FLAG-sortilin ICD+TMD, and expression vector of sortilin-3×FLAG (GeneCopoeia, Inc., Cat # EX-M0397-M14), respectively. These cell lines were maintained in EMEM supplemented with 10% FBS, penicillin/streptomycin, and geneticin 800 μg/mL. Cells were incubated in the incubator with MG-132 and chloroquine during the indicated time, and with 2-FPA and sortilin propeptide for 24 hours, respectively.

[2] = molecular target: T1, FLAG-sortilin (Homo sapiens, UniProt Q99523); experiment: Non-reducing western blotting of sortilin dimerization in FLAG-sortilin HEK293 cells; assay type: cell-based; details: for sortilin homodimers of low molecular weight in the cells: HEK293 cells stably overexpressing FLAG-sortilin, 24-h incubation, n=3; for dimerization of sortilin in the cells: FLAG-sortilin HEK293 cells, propeptide 100 nmol/L, 24 hours, n=2
T1 construct: pcDNA3.1(+) FLAG-sortilin full-length (Full), amino acids (aa) 1-831; expressed in transfected cells; cells and their extracellular vesicles
T1 sequence (Q99523 78-831): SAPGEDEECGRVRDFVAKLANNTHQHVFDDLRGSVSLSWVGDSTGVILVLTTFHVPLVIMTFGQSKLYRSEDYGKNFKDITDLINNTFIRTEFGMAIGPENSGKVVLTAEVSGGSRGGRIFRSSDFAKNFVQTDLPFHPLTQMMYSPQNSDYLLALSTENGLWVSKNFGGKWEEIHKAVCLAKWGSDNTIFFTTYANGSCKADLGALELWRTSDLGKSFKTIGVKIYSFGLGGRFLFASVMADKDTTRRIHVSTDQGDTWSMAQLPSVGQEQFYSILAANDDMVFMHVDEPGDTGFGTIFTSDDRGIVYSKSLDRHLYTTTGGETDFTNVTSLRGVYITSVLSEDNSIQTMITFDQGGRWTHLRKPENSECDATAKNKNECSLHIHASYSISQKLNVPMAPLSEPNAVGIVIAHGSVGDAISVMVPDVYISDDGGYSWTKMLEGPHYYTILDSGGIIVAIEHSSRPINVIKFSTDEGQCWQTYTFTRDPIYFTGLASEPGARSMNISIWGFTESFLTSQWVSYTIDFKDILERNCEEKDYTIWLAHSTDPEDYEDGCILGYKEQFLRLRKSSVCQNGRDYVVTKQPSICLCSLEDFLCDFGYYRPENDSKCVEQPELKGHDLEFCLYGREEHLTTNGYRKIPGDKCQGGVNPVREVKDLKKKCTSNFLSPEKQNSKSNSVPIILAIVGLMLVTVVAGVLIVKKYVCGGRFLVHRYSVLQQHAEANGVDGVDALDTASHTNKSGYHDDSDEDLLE
Protocol: as §1, §2

[3] = molecular target: T1, FLAG-sortilin; experiment: Non-reducing western blotting of sortilin dimerization in extracellular vesicles of FLAG-sortilin HEK293 cells; assay type: cell-based; details: for sortilin homodimers (dimerization) in the extracellular vesicles: EVs of HEK293 cells stably overexpressing FLAG-sortilin, 24-h incubation, n=3; for dimerization of sortilin in the extracellular vesicles: EVs of FLAG-sortilin HEK293 cells, propeptide 100 nmol/L, 24 hours, n=2
Protocol: as §1, §2
Separation of culture medium to supernatant and EVs was performed according to the protocol previously reported (41). Culture medium underwent centrifugation at 1,000 rpm for 5 minutes to remove cell debris. Then, the supernatant and EVs were separated by ultracentrifugation at 100,000 g for 40 minutes at 4° C. (Optima Max Ultracentrifuge, Beckman Coulter).

[4] = listed as palmitoylation inhibitor

Molecule: Chloroquine diphosphate salt
- protein expression of FLAG-sortilin ICD+TMD [1]: did not

Molecule: CC(C)C[C@@H](C=O)NC(=O)[C@H](CC(C)C)NC(=O)[C@H](CC(C)C)NC(=O)OCc1ccccc1 [MG-132] (Cbz-Leu-Leu-Leu-aldehyde)
- protein expression of FLAG-sortilin ICD+TMD [1]: increased the protein expression of FLAG-sortilin ICD+TMD
- protein expression of FLAG-sortilin ICD+TMD, time and concentration dependence ([1]; MG-132 2-20 μmol/L for 7 or 24 hours): increased protein expression of FLAG-sortilin ICD+TMD in a time- and concentration-dependent manner

Molecule: CCCCCCCCCCCCCCC(F)C(=O)O (stereo not drawn) [2-FPA, 2-fluoropalmitic acid]
- sortilin homodimers of low molecular weight in the cells [2]: increased only homodimers of lower molecular size in the cells; also recorded: increased sortilin homodimers of low molecular weight
- sortilin homodimers of low molecular weight in the cells [2, 4]: increased sortilin dimerization
- sortilin homodimers (dimerization) in the extracellular vesicles [3]: increased dimerization of FLAG-sortilin in the EVs; also recorded: increased sortilin homodimers of low molecular weight
- sortilin homodimers (dimerization) in the extracellular vesicles [3, 4]: increased transport of dimerized sortilin to EVs

Molecule: sortilin-derived propeptide: Sortilin propeptide (SEQ ID NO: 2), purchased from Phoenix Pharmaceuticals; the claimed inhibitor of sortilin dimerization (QDRLDAPPPPAAPLPRWSGPIGVSWGLRAAAAGGAFPRGGRWRR; listed as Homo sapiens)
- dimerization of sortilin in the cells [2]: did not affect dimerization in the cells
- dimerization of sortilin in the cells ([2]; listed as propeptide): a decrease in the cells was not observed
- sortilin dimerization (formation of homodimers), compartment not given ([2]; HEK293 cell line, propeptide treatment, summary statement): reduced them; also recorded: sortilin dimerization was decreased
- dimerization of sortilin in the extracellular vesicles [3]: decreased sortilin homodimers within EVs; also recorded: decreases sortilin homodimers in EVs; also recorded: decreased dimerization in the extracellular vesicles
- dimerization of sortilin in the extracellular vesicles ([3]; listed as propeptide): decreased dimerization of sortilin in the extracellular vesicles
